Results from patent US20130005696A1, “BUFADIENOLIDE DERIVATIVES, PREPARING PROCESS THEREOF, COMPOSITION COMPRISING THE SAME AND THE USE THEREOF” (priority 2011, published 2013).

Assays:
[1] = test system: HeLa human cervical carcinoma cell line; test: In vitro antitumor activity assay (SRB), HeLa; format: cell-based; conditions: read-out: IC50, inhibitory activity on cell proliferation of HeLa cell line
Source text: (§1) HeLa human cervical carcinoma cell line, A-549 human non-small cell lung carcinoma cell line, NCI-H2228 human lung carcinoma cell line, NCI-H460 human lung carcinoma cell line, MDA-MB-231 human breast carcinoma cell line, MCF-7 human breast carcinoma cell line, Bel-7402 human hepatic carcinoma cell line, Hep3B human hepatic carcinoma cell line, QGY-7703 human hepatic carcinoma cell line, MV-4-11 human leukemic cell line, DAUDI human leukemic cell line, Jurkat human leukemic cell line, A498 renal carcinoma cell line, LoVo human colon carcinoma cell line, HCT1116 human colon carcinoma cell line, A431 human skin carcinoma cell line, PANC-1 human pancreatic carcinoma cell line, U87-MG human brain carcinoma cell line, SH-SY5Y human brain carcinoma cell line, RPMI-8226 human bone carcinoma cell line, HT1080 human fibrosarcoma cell line, PC-3 human prostatic carcinoma cell line, AGS human gastric adenocarcinoma cell line, and BGC-823 human gastric adenocarcinoma cell line were purchased from the Cell Bank of the Chinese Academy of Sciences.
(§2) The positive control is bufalin (formulated according to the common method), its purity is 98% or more by HPLC-UV and its structure is identified by NMR. The compounds to be tested and the positive control were diluted with normal saline with a concentration gradient of 10^−4 M, 10^−5 M, 10^−6 M, 10^−7 M and 10^−8 M.
(§3) According to cell growth rate, tumor cells in the log phase of growth were seeded into 96-well culture plates at 100 μL per well, and allowed to attach for 24 hours, followed by addition of a test compound or positive control at 10 μL per well. For each concentration, the test was carried out in triplicate wells. Solvent control wells with addition of normal saline into cell culture and a blank well containing only cell culture medium but without cells for zeroing were also included. The tumor cells were incubated for 72 hours at 37° C. under 5% CO2, and then the culture medium (RPMI-1640) was removed. The cells were fixed with 10% cool TCA by incubating for 1 h at 4° C., washed with distilled water for 5 times, and dried naturally in the air. A solution of SRB (Sigma) (4 mg/mL) in 1% glacial acetic acid was added at 100 μL per well, and the cells were stained for 15 minutes at room temperature, and the supernatant was discarded. The plates were washed for 5 times with 1% acetic acid, and dried in air. Finally, Tris solution was added at 150 μL per well, and the absorbance (A) was measured at a wavelength of 515 nm using a microplate reader. The growth inhibition on tumor cell proliferation was calculated according to the following equation:
(§4) Growth Inhibition (%)=[(Absorbance of negative control−Absorbance of blank)−(Absorbance of sample−Absorbance of blank)]/(Absorbance of negative control−Absorbance of blank)×100%
(§5) Drug concentration: 10 μM, 1 μM, 0.1 μM, 10 nM, 1 nM, 0.1 nM.
(§6) IC50 was fitted by GraphPad Prism 4.

[2] = test system: A-549 human non-small cell lung carcinoma cell line; test: In vitro antitumor activity assay (SRB), A549; format: cell-based; conditions: Homo sapiens; A549, Table 2; read-out: IC50, inhibition of cell proliferation, A549
Source text: as §1, §2, §3, §4, §5, §6

[3] = test system: MCF-7 human breast carcinoma cell line; test: In vitro antitumor activity assay (SRB), MCF-7; format: cell-based; conditions: Homo sapiens, MCF7; MCF-7, Table 2; read-out: IC50, inhibition of cell proliferation, MCF-7
Source text: as §1, §2, §3, §4, §5, §6

[4] = test system: PC-3 human prostatic carcinoma cell line; test: In vitro antitumor activity assay (SRB), PC-3; format: cell-based; conditions: Homo sapiens, Prostatic carcinoma cell; PC-3, Table 2; read-out: IC50, inhibition of cell proliferation, PC-3
Source text: as §1, §2, §3, §4, §5, §6

[5] = test system: LoVo human colon carcinoma cell line; test: In vitro antitumor activity assay (SRB), LoVo; format: cell-based; conditions: Table 2, read-out: IC50, inhibition of cell proliferation, LoVo
Source text: as §1, §2, §3, §4, §5, §6

[6] = test system: human-derived leukaemia MV-4-11 xenograft; test: Therapeutic effect against MV-4-11 xenograft in nude mice; format: in vivo, Balb/c nude mice
Description: (§7) This experiment is to investigate the in vivo inhibitory effect of II1E-01.HCl on growth of human-derived hepatic carcinoma HepG2 cell, human-derived breast carcinoma MDA-MB-231 cell, human-derived lung carcinoma H460 cell, human-derived colon carcinoma HCT-116 cell, human-derived […] MV-4-11 cell xenografts in nude mice.
(§8) Formulation of solvent control (5% anhydrous ethanol & 5% aqueous glucose solution): 2.5 mL anhydrous ethanol was added into a 50 mL tube, followed by addition of 47.5 mL 5% glucose solution for injection followed by shaking, and stored at room temperature before use.
(§9) Formulation of the preparations of the compounds to be tested: formulations with concentrations of 0.4 mg/mL and 0.6 mg/mL were prepared respectively. An appropriate amount of II1E-01.HCl was weighted and put into a 50 mL tube, followed by addition of corresponding volume of solvent to get the desired concentration and mixed using a vortex mixer. After the solid was dissolved completely, the solution was subpackaged into 4 mL vials and stored at refrigerated condition (2-8° C.) until use.
(§10) Experimental animals: Balb/c nude mice (male, six weeks old).
MV-4-11 cells were in vitro cultured to be proliferated. The cells in the log phase of growth were collected and resuspended in IMDM serum-free medium, and then implanted subcutaneously into the axilla of the right forelimb of nude mice. After 37 days, the tumor size reached about 270 mm^3. The mice bearing the tumor were grouped by randomized block method according to the tumor size into 3 groups, which contain 6 mice in each group and include the group of solvent control, group of positive control (Sunitinib 40 mg/kg), and group of the testing compound II1E-01.HCl (4 mg/kg QOD). In the positive control group, sunitinib was administered intragastrically once daily (QD). In the group of II1E-01.HCl, II1E-01.HCl was administered intravenously at tail once every other day (QOD). The animals were given the drugs for 21 days, during which the growth of tumor and the body weight of the mice were observed.
After continuously administering for 21 days (the 58th day after the implantation), the tumor weight and inhibition rate were calculated, and results are listed in Table 9. […] In the group of the testing compound II1E-01.HCl (4 mg/kg QOD), the tumor also completely disappeared at 14th day after administration, and the inhibition rate was 100.00% (P<0.01) at the end of the experiment.

[7] = test system: human hepatic carcinoma HepG2 xenograft; test: Therapeutic effect against HepG2 xenograft in nude mice; format: in vivo, Balb/c nude mice; conditions: QW × 14 d
Description: as §7, §8, §9, §10
HepG2 cells were in vitro cultured to be proliferated. The cells in the log phase of growth were collected and resuspended in DMEM serum-free medium, and then implanted subcutaneously into the axilla of the right forelimb of nude mice. After 11 days, the tumor size reached about 250 mm^3. The mice bearing the tumor were grouped according to the tumor size into 6 groups, including the group of solvent control, groups of positive controls (Rapamycin 10 mg/kg and Vinorelbine 8 mg/kg), and groups of low (2 mg/kg), middle (4 mg/kg) and high (6 mg/kg) dosages of the testing compound II1E-01.HCl. Each group was administered intravenously at tail. In the solvent control group, the solvent control solution was administered intravenously once every other day (QOD). In the low, middle and high dosage groups of II1E-01.HCl, II1E-01.HCl was administered intravenously once every other day (QOD). In the positive control groups, Rapamycin 10 mg/kg and Vinorelbine 8 mg/kg were administered once a week (QW). The animals were given the drugs for two weeks. In the two week time period, the growth of tumor and the body weight of the mice were observed.
Two weeks after administering (the 25th day after the implantation), the tumor weight and inhibition rate were calculated, and results are listed in Table 5.

[8] = test system: human non-small cell lung carcinoma A549 xenograft; test: In vivo therapeutic effect against A549 xenograft in nude mice; conditions: A549 xenograft, 5 mg/kg iv QW, after 21 days
Description: This experiment is to evaluate the in vivo therapeutic effects of compounds bufalin, II1D-06.HCl, II1E-01.HCl and II1B-02.HCl against human-derived lung carcinoma A549 cell xenograft in nude mice.
Solvent control: 4% DMSO & 2% Tween-80 & 5% PEG-400 solution in normal saline
Compounds to be tested: bufalin, II1B-02.HCl, II1E-01.HCl, II1D-06.HCl
Formulating method: the compound was dissolved with DMSO into a stock solution, which was then diluted into an injection with a final DMSO concentration of 4%.
Positive control: Rapamycin Formulating method: it was formulated into an injection with a final DMSO concentration of 4%.
After the tumor size reaches about 200 mm^3, the mice bearing the tumor were grouped randomly into 8 groups according to the tumor size, including the groups of solvent control, positive control rapamycin 5 mg/kg, II1E-01.HCl 2 mg/kg, II1E-01.HCl 4 mg/kg, II1E-01.HCl 6 mg/kg, II1B-02.HCl 4 mg/kg, II1D-06.HCl 4 mg/kg, bufalin 1.6 mg/kg, wherein the dosage selection is based on that the maximum tolerable dosage is 1.6 mg/kg for bufalin and 6 mg/kg for II1E-01.HCl. Rapamycin was administered intravenously once a week (QW) and the other groups were administered intraperitoneally once every other day (QOD). The tumor was weighted after 21 days to calculate the inhibition rate. The equation for calculating inhibition rate (IR) is IR=(WC−WT)/WC×100%, wherein, WC represents the tumor weight of the control group, and WT represents the tumor weight of the treating group.

Work on `C[C@]12CC[C@H](OC(=O)NCC3CCCCN3)C[C@H]1CC[C@@H]1[C@@H]2CC[C@]2(C)[C@@H](c3ccc(=O)oc3)CC[C@]12O` (stereo partly drawn) [II1E-03] yielded an IC50 [1] of 0.8 nM, an IC50 [2] of 0.58 ± 0.17 nM and an IC50 [3] of 31 ± 3.07 nM. The IC50 [4] was 14.8 ± 1.12 nM and the IC50 [5] was 23.4 ± 3.68 nM.
Work on `C[C@]12CC[C@H](NC(=O)N3CCCNCC3)C[C@H]1CC[C@@H]1[C@@H]2CC[C@]2(C)[C@@H](c3ccc(=O)oc3)CC[C@]12O` [III1D-04] yielded an IC50 [1] of 3.98 nM.
`C[C@]12CC[C@H](NC(=O)NC3CCNCC3)C[C@H]1CC[C@@H]1[C@@H]2CC[C@]2(C)[C@@H](c3ccc(=O)oc3)CC[C@]12O` [III1E-01] gave an IC50 [1] of 7.2 nM.
In the case of `C[C@]12CC[C@H](NC(=O)NCC3CCCCN3)C[C@H]1CC[C@@H]1[C@@H]2CC[C@]2(C)[C@@H](c3ccc(=O)oc3)CC[C@]12O` (stereo partly drawn) [III1E-02], the IC50 [1] is reported as 8.68 nM.
For `CCN(CC)CCNC(=O)c1c(C)[nH]c(/C=C2\C(=O)Nc3ccc(F)cc32)c1C` [Sunitinib, reference compound], the “day after administration at which the tumor completely disappeared” value ([6]; 40 mg/kg ig QD) was 10 days, the “Tumor Weight(g) Mean ± SE” value ([6]; 40 mg/kg ig, QD × 21 d) was 0.0000 ± 0.0000 g and the “Inhibition Rate (%)” value ([6]; 40 mg/kg ig, QD × 21 d, 40 mg/kg) was 100.00%.
`CCC1=C[C@@H]2CN(C1)Cc1c([nH]c3ccccc13)[C@@](C(=O)OC)(c1cc3c(cc1OC)N(C)[C@H]1[C@@](O)(C(=O)OC)[C@H](OC(C)=O)[C@]4(CC)C=CCN5CC[C@]31[C@@H]54)C2` [Vinorelbine, reference compound] was tested, and the “Tumor Weight(g) Mean ± SE” value ([7]; 8 mg/kg iv) was 0.4719 ± 0.0660 g and the “Inhibition Rate (%)” value ([7]; 8 mg/kg iv, 8 mg/kg) was 38.36%.
For `CO[C@H]1C[C@@H]2CC[C@@H](C)[C@@](O)(O2)C(=O)C(=O)N2CCCC[C@H]2C(=O)O[C@H]([C@H](C)C[C@@H]2CC[C@@H](O)[C@H](OC)C2)CC(=O)[C@H](C)/C=C(\C)[C@@H](O)[C@@H](OC)C(=O)[C@H](C)C[C@H](C)/C=C/C=C/C=C/1C` [rapamycin, Rapamycin, reference compound], the “Inhibition Rate (%)” value [8] was 58.86%, the “Tumor Weight(g) Mean ± SE” value [8] was 0.6925 ± 0.0652 g and the “Tumor Weight(g) Mean ± SE” value ([7]; 10 mg/kg iv) was 0.4806 ± 0.0269 g. For the same compound, the “Inhibition Rate (%)” value ([7]; 10 mg/kg iv, 10 mg/kg) was 37.23% and the “Inhibition Rate (%)” value ([7]; 10 mg/kg iv, listed as Rapamycin, 10 mg/kg) was 37.23%.
